{"source": "patent US20090105270A1", "about": "“Kinase inhibition and anticancer therapy” (priority 2007, published 2009)", "key": {"[1]": {"target": "PKCα(h) (Homo sapiens, UniProt P17252)", "assay": "Upstate kinase activity inhibition assay PKCα(h)", "settings": "40 min, read-out: percentage of enzyme activity that remains"}, "[2]": {"target": "MKK7β(h) (Homo sapiens, UniProt O14733)", "assay": "Upstate kinase activity inhibition assay MKK7β(h)"}, "[3]": {"target": "MLCK(h) (Homo sapiens, UniProt Q9H1R3)", "assay": "Upstate kinase activity inhibition assay MLCK(h)", "settings": "40 min, read-out: percentage of enzyme activity that remains"}, "[4]": {"target": "T1, MST1(h) (Homo sapiens, UniProt Q13043)", "T1 construct": "purchased Upstate (KinaseProfiler service)", "assay": "Upstate kinase activity inhibition assay MST1(h)", "format": "biochemical"}, "[5]": {"target": "T2, Lyn(h) (Homo sapiens, UniProt P07948)", "T2 construct": "purchased Upstate (KinaseProfiler service)", "assay": "Upstate kinase activity inhibition assay Lyn(h)", "format": "biochemical", "settings": "40 min; read-out: percentage of enzyme activity that remains"}, "[6]": {"target": "T3, PrKX(h) (Homo sapiens, UniProt P51817)", "T3 construct": "purchased Upstate (KinaseProfiler service)", "assay": "Upstate kinase activity inhibition assay PrKX(h)", "format": "biochemical", "settings": "40 min; read-out: percentage of enzyme activity that remains"}, "[7]": {"target": "NEK7(h) (Homo sapiens, UniProt Q8TDX7)", "sequence (Q8TDX7 whole entry)": "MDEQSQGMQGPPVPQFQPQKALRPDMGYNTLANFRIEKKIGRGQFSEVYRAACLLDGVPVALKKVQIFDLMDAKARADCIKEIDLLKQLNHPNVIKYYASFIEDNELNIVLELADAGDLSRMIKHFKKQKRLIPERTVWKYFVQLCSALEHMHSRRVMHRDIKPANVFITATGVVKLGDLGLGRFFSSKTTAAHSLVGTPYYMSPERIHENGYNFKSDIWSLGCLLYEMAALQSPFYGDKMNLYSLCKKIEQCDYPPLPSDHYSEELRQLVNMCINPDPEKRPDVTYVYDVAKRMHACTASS", "assay": "Upstate kinase activity inhibition assay NEK7(h)", "format": "biochemical", "settings": "40 min; read-out: percentage of enzyme activity that remains"}, "[8]": {"target": "T4, MAPK2(h) (Homo sapiens, UniProt P28482)", "T4 construct": "purchased Upstate (KinaseProfiler service)", "assay": "Upstate kinase activity inhibition assay MAPK2(h)", "format": "biochemical", "settings": "40 min; read-out: percentage of enzyme activity that remains"}, "[9]": {"target": "T5, Mnk2(h) (Homo sapiens, UniProt Q9HBH9)", "T5 construct": "purchased Upstate (KinaseProfiler service)", "assay": "Upstate kinase activity inhibition assay Mnk2(h)", "format": "biochemical", "settings": "40 min; read-out: percentage of enzyme activity that remains"}, "[10]": {"target": "STK33(h) (Homo sapiens, UniProt Q9BYT3)", "sequence (Q9BYT3 whole entry)": "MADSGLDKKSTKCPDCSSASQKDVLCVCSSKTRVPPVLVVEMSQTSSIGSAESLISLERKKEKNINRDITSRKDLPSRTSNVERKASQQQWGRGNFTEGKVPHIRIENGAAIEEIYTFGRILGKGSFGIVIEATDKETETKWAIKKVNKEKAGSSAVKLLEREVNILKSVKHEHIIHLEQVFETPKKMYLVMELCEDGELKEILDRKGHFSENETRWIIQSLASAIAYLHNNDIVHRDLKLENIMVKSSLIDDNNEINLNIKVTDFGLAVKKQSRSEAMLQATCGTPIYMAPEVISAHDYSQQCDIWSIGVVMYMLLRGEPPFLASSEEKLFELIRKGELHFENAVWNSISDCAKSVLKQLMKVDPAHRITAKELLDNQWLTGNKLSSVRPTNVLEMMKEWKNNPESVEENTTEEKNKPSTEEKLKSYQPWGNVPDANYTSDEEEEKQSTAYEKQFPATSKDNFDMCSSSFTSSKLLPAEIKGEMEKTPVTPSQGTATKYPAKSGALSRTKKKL", "assay": "Upstate kinase activity inhibition assay STK33(h)", "settings": "40 min, read-out: percentage of enzyme activity that remains"}, "[11]": {"target": "PKCθ(h) (Homo sapiens, UniProt Q04759)", "sequence (Q04759 whole entry)": "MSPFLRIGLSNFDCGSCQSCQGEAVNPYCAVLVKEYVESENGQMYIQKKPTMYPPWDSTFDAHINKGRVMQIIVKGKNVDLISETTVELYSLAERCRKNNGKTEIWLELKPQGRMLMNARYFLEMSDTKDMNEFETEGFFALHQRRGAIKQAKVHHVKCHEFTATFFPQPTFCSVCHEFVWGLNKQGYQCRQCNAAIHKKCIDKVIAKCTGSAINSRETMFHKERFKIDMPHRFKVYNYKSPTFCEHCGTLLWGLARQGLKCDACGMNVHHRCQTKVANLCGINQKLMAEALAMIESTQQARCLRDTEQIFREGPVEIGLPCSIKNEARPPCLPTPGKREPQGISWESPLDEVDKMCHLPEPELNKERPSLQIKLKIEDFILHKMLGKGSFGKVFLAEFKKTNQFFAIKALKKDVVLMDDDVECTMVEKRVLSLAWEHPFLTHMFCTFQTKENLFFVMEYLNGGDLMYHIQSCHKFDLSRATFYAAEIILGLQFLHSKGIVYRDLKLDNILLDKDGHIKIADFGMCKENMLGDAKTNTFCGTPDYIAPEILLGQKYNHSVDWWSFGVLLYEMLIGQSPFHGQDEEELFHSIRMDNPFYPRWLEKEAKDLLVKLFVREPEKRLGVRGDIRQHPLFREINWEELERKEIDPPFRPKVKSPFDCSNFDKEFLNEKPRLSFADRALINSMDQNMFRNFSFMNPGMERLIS", "assay": "Upstate kinase activity inhibition assay PKCθ(h)", "settings": "40 min, read-out: percentage of enzyme activity that remains"}, "[12]": {"target": "T6, Fer(h) (Homo sapiens, UniProt P16591)", "T6 construct": "purchased Upstate (KinaseProfiler service)", "T6 sequence (P16591 whole entry)": "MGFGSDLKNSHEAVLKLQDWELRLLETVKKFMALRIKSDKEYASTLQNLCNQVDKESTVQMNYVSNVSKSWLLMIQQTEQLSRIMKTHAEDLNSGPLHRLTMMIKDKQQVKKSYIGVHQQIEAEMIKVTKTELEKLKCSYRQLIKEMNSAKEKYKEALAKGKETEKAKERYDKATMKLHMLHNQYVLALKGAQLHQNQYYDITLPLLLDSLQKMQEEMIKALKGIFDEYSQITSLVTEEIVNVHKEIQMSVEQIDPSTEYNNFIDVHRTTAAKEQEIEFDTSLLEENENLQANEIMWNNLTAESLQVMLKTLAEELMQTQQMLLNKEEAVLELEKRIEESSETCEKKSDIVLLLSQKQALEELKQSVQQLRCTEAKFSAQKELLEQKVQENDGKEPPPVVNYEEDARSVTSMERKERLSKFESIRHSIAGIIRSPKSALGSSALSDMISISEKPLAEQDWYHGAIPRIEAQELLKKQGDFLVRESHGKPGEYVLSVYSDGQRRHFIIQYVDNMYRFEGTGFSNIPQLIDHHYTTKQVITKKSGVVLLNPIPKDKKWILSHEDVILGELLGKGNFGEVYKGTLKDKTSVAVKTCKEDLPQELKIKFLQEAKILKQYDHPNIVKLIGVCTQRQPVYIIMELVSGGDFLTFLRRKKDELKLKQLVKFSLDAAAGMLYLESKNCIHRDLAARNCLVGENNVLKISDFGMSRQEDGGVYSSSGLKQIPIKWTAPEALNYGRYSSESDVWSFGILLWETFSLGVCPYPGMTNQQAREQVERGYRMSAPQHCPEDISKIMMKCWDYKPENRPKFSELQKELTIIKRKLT", "assay": "Upstate kinase activity inhibition assay Fer(h)", "format": "biochemical", "settings": "40 min; read-out: percentage of enzyme activity that remains"}, "[13]": {"target": "ARK5(h) (Homo sapiens, UniProt O60285)", "sequence (O60285 whole entry)": "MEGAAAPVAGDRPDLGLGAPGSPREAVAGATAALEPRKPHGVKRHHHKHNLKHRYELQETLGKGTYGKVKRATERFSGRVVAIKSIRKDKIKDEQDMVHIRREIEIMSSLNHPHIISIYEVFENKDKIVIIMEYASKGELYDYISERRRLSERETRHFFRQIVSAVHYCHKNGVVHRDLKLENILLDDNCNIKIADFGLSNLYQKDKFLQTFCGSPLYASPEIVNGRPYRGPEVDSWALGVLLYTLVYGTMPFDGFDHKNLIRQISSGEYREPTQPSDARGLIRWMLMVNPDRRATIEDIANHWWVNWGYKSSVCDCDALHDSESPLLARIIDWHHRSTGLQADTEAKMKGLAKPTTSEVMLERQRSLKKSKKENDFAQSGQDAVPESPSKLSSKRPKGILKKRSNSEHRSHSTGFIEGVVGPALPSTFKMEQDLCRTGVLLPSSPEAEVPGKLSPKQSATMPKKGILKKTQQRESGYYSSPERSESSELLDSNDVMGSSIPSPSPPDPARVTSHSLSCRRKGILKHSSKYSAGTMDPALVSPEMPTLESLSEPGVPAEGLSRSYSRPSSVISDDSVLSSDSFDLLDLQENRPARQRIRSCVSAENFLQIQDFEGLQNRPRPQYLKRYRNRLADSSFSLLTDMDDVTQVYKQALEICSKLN", "assay": "Upstate kinase activity inhibition assay ARK5(h)"}, "[14]": {"target": "EphA4(h) (Homo sapiens, UniProt P54764)", "assay": "Upstate kinase activity inhibition assay EphA4(h)", "settings": "40 min, read-out: percentage of enzyme activity that remains"}, "[15]": {"target": "T7, PKCβI(h) (Homo sapiens, UniProt P05771)", "T7 construct": "purchased Upstate (KinaseProfiler service)", "assay": "Upstate kinase activity inhibition assay PKCβI(h)", "format": "biochemical", "settings": "40 min; read-out: percentage of enzyme activity that remains"}, "[16]": {"target": "T8, eEF-2K(h) (Homo sapiens, UniProt O00418)", "T8 construct": "purchased Upstate (KinaseProfiler service)", "assay": "Upstate kinase activity inhibition assay eEF-2K(h)", "format": "biochemical", "settings": "40 min; read-out: percentage of enzyme activity that remains"}, "[17]": {"target": "T9, IKKα(h) (Homo sapiens, UniProt O15111)", "T9 construct": "purchased Upstate (KinaseProfiler service)", "T9 sequence (O15111 whole entry)": "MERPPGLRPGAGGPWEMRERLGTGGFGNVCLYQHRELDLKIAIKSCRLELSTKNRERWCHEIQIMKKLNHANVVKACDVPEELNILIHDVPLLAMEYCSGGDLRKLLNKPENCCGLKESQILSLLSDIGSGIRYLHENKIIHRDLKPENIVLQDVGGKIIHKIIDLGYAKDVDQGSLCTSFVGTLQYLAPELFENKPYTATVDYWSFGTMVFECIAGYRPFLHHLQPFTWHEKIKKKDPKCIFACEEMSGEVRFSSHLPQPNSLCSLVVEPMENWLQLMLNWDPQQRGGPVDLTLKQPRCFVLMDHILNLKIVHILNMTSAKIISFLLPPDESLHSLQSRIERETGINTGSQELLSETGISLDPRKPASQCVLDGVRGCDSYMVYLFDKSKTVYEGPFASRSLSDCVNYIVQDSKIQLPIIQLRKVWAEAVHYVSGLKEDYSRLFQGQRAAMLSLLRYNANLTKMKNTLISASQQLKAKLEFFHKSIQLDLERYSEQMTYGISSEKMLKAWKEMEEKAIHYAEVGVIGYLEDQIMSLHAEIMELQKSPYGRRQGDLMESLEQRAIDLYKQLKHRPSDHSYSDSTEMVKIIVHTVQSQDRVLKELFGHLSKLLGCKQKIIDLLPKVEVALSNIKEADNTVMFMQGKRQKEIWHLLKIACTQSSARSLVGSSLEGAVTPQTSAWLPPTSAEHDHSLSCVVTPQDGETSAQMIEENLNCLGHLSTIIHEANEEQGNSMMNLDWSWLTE", "assay": "Upstate kinase activity inhibition assay IKKα(h)", "format": "biochemical", "settings": "40 min; read-out: percentage of enzyme activity that remains"}, "[18]": {"target": "Yes(h) (Homo sapiens, UniProt P07947)", "assay": "Upstate kinase activity inhibition assay Yes(h)", "settings": "40 min, read-out: percentage of enzyme activity that remains"}, "[19]": {"target": "IRAK1(h) (Homo sapiens, UniProt P51617)", "assay": "Upstate kinase activity inhibition assay IRAK1(h)", "settings": "40 min, read-out: percentage of enzyme activity that remains"}, "[20]": {"target": "T10, CDK7/cyclinH/MAT1(h) (Homo sapiens, UniProt P50613)", "T10 construct": "purchased Upstate (KinaseProfiler service)", "assay": "Upstate kinase activity inhibition assay CDK7/cyclinH/MAT1(h)", "format": "biochemical", "settings": "40 min, read-out: percentage of enzyme activity that remains"}, "[21]": {"target": "Snk(h) (Homo sapiens, UniProt Q9NYY3)", "assay": "Upstate kinase activity inhibition assay Snk(h)"}, "[22]": {"target": "SGK2(h) (Homo sapiens, UniProt Q9HBY8)", "sequence (Q9HBY8 whole entry)": "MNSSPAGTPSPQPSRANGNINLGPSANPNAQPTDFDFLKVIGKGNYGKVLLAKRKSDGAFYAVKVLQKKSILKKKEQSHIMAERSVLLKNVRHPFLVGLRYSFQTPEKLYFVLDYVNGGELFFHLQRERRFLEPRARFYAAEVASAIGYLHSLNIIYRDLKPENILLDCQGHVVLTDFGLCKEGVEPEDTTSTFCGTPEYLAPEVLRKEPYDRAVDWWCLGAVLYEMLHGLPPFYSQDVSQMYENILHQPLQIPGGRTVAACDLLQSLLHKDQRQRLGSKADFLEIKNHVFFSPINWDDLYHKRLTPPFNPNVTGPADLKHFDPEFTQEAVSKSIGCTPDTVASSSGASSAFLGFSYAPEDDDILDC", "assay": "Upstate kinase activity inhibition assay SGK2(h)", "settings": "40 min, read-out: percentage of enzyme activity that remains"}, "[23]": {"target": "ALK4(h) (Homo sapiens, UniProt P36896)", "assay": "Upstate kinase activity inhibition assay ALK4(h)", "settings": "40 min, read-out: percentage of enzyme activity that remains"}, "[24]": {"target": "T11, PDGFRβ(h) (Homo sapiens, UniProt P09619)", "T11 construct": "purchased Upstate (KinaseProfiler service)", "assay": "Upstate kinase activity inhibition assay PDGFRβ(h)", "format": "biochemical", "settings": "40 min; read-out: percentage of enzyme activity that remains"}, "[25]": {"target": "T12, CDK9/cyclin T1(h) (Homo sapiens, UniProt P50750)", "T12 construct": "purchased Upstate (KinaseProfiler service)", "assay": "Upstate kinase activity inhibition assay CDK9/cyclin T1(h)", "format": "biochemical", "settings": "40 min; read-out: percentage of enzyme activity that remains"}, "[26]": {"target": "MRCKα(h) (Homo sapiens, UniProt Q5VT25)", "assay": "Upstate kinase activity inhibition assay MRCKα(h)", "settings": "40 min, read-out: percentage of enzyme activity that remains"}, "[27]": {"target": "CHK1(h) (Homo sapiens, UniProt O14757)", "assay": "Upstate kinase activity inhibition assay CHK1(h)"}, "[28]": {"target": "FGFR3(h) (Homo sapiens, UniProt P22607)", "assay": "Upstate kinase activity inhibition assay FGFR3(h)", "settings": "40 min, read-out: percentage of enzyme activity that remains"}, "[29]": {"target": "T13, CDK3/cyclinE(h) (Homo sapiens, UniProt Q00526)", "T13 construct": "purchased Upstate (KinaseProfiler service)", "assay": "Upstate kinase activity inhibition assay CDK3/cyclinE(h)", "format": "biochemical", "settings": "4 μM Compound E"}, "[30]": {"target": "T14, PDK1(h) (Homo sapiens, UniProt O15530)", "T14 construct": "purchased Upstate (KinaseProfiler service)", "assay": "Upstate kinase activity inhibition assay PDK1(h)", "format": "biochemical", "settings": "40 min; read-out: percentage of enzyme activity that remains"}}, "data": [{"smiles": "Cc1cc(Nc2cc(N3CCN(C)CC3)nc(Sc3ccc(NC(=O)C4CC4)cc3)n2)n[nH]1", "note": "[Compound E, Cyclopropane carboxylic acid {4-[4-(4-methyl-piperazin-1-yl)-6-(5-methyl-2H-pyrazol-3-ylamino)-pyrimidin-2-ylsulphanyl]-phenyl}-amide]", "values": [{"measurement": "remaining activity at 0.2 µM", "setting": "[1]", "result": 115, "unit": "%"}, {"measurement": "remaining activity at 4 µM", "setting": "[1]", "result": 105, "unit": "%"}, {"measurement": "percentage of enzyme activity that remains", "setting": "[2]; 0.2 μM Compound E", "result": 91, "unit": "%"}, {"measurement": "percentage of enzyme activity that remains", "setting": "[2]; 4 μM Compound E", "result": 97, "unit": "%"}, {"measurement": "remaining activity at 0.2 µM", "setting": "[3]", "result": 95, "unit": "%"}, {"measurement": "remaining activity at 4 µM", "setting": "[3]", "result": 88, "unit": "%"}, {"measurement": "percentage of enzyme activity that remains", "setting": "[4]; 0.2 μM Compound E", "result": 88, "unit": "%"}, {"measurement": "percentage of enzyme activity that remains", "setting": "[4]; 4 μM Compound E", "result": 38, "unit": "%"}, {"measurement": "remaining activity at 0.2 µM", "setting": "[5]", "result": 45, "unit": "%"}, {"measurement": "remaining activity at 4 µM", "setting": "[5]", "result": 3, "unit": "%"}, {"measurement": "remaining activity at 0.2 µM", "setting": "[6]", "result": 97, "unit": "%"}, {"measurement": "remaining activity at 4 µM", "setting": "[6]", "result": 96, "unit": "%"}, {"measurement": "remaining activity at 0.2 µM", "setting": "[7]", "result": 84, "unit": "%"}, {"measurement": "remaining activity at 4 µM", "setting": "[7]", "result": 83, "unit": "%"}, {"measurement": "remaining activity at 0.2 µM", "setting": "[8]", "result": 92, "unit": "%"}, {"measurement": "remaining activity at 4 µM", "setting": "[9]", "result": 96, "unit": "%"}, {"measurement": "remaining activity at 0.2 µM", "setting": "[10]", "result": 112, "unit": "%"}, {"measurement": "remaining activity at 4 µM", "setting": "[10]", "result": 110, "unit": "%"}, {"measurement": "remaining activity at 0.2 µM", "setting": "[11]", "result": 25, "unit": "%"}, {"measurement": "remaining activity at 4 µM", "setting": "[11]", "result": 35, "unit": "%"}, {"measurement": "remaining activity at 0.2 µM", "setting": "[12]", "result": 100, "unit": "%"}, {"measurement": "remaining activity at 4 µM", "setting": "[12]", "result": 48, "unit": "%"}, {"measurement": "percentage of enzyme activity that remains", "setting": "[13]; 0.2 μM Compound E", "result": 53, "unit": "%"}, {"measurement": "percentage of enzyme activity that remains", "setting": "[13]; 4 μM Compound E", "result": 11, "unit": "%"}, {"measurement": "remaining activity at 0.2 µM", "setting": "[14]", "result": 103, "unit": "%"}, {"measurement": "remaining activity at 4 µM", "setting": "[14]", "result": 61, "unit": "%"}, {"measurement": "remaining activity at 0.2 µM", "setting": "[15]", "result": 100, "unit": "%"}, {"measurement": "remaining activity at 4 µM", "setting": "[15]", "result": 98, "unit": "%"}, {"measurement": "remaining activity at 0.2 µM", "setting": "[16]", "result": 91, "unit": "%"}, {"measurement": "remaining activity at 4 µM", "setting": "[16]", "result": 82, "unit": "%"}, {"measurement": "remaining activity at 0.2 µM", "setting": "[17]", "result": 103, "unit": "%"}, {"measurement": "remaining activity at 4 µM", "setting": "[17]", "result": 99, "unit": "%"}, {"measurement": "remaining activity at 0.2 µM", "setting": "[18]", "result": 39, "unit": "%"}, {"measurement": "remaining activity at 4 µM", "setting": "[18]", "result": 2, "unit": "%"}, {"measurement": "remaining activity at 0.2 µM", "setting": "[19]", "result": 107, "unit": "%"}, {"measurement": "remaining activity at 4 µM", "setting": "[19]", "result": 108, "unit": "%"}, {"measurement": "remaining activity at 0.2 µM", "setting": "[20]", "result": 113, "unit": "%"}, {"measurement": "remaining activity at 4 µM", "setting": "[20]", "result": 94, "unit": "%"}, {"measurement": "percentage of enzyme activity that remains", "setting": "[21]; 0.2 μM Compound E", "result": 99, "unit": "%"}, {"measurement": "percentage of enzyme activity that remains", "setting": "[21]; 4 μM Compound E", "result": 103, "unit": "%"}, {"measurement": "remaining activity at 0.2 µM", "setting": "[22]", "result": 102, "unit": "%"}, {"measurement": "remaining activity at 4 µM", "setting": "[22]", "result": 102, "unit": "%"}, {"measurement": "remaining activity at 0.2 µM", "setting": "[23]", "result": 103, "unit": "%"}, {"measurement": "remaining activity at 4 µM", "setting": "[23]", "result": 124, "unit": "%"}, {"measurement": "remaining activity at 0.2 µM", "setting": "[24]", "result": 102, "unit": "%"}, {"measurement": "remaining activity at 4 µM", "setting": "[24]", "result": 90, "unit": "%"}, {"measurement": "remaining activity at 0.2 µM", "setting": "[25]", "result": 80, "unit": "%"}, {"measurement": "remaining activity at 4 µM", "setting": "[25]", "result": 84, "unit": "%"}, {"measurement": "remaining activity at 0.2 µM", "setting": "[26]", "result": 96, "unit": "%"}, {"measurement": "remaining activity at 4 µM", "setting": "[26]", "result": 99, "unit": "%"}, {"measurement": "percentage of enzyme activity that remains", "setting": "[27]; 0.2 μM Compound E", "result": 99, "unit": "%"}, {"measurement": "percentage of enzyme activity that remains", "setting": "[27]; 4 μM Compound E", "result": 92, "unit": "%"}, {"measurement": "remaining activity at 0.2 µM", "setting": "[28]", "result": 87, "unit": "%"}, {"measurement": "remaining activity at 4 µM", "setting": "[28]", "result": 29, "unit": "%"}, {"measurement": "percentage of enzyme activity that remains", "setting": "[29]", "result": 97, "unit": "%"}, {"measurement": "remaining activity at 0.2 µM", "setting": "[30]", "result": 97, "unit": "%"}, {"measurement": "remaining activity at 4 µM", "setting": "[30]", "result": 86, "unit": "%"}]}]}
